In patent publication US9981950B2, “Triazoles as NR2B receptor inhibitors” (Janssen Pharmaceuticals, Inc., priority 2014, dated 2018):

Columns and labels:
[1] = biological target: T1, rat NR1/NR2B receptor (Rattus norvegicus (Rat), UniProt P35439+Q00960); assay: RRNR2BB: inhibition of specific binding to the rat NR1/NR2B receptor; conditions: [3H]-Ifenprodil binding, rat brain membranes, Hill-plot 2-parameter-model
Procedure: RRNR2BB—Inhibition of Specific Binding to the Rat NR1/NR2B Receptor
(§1) Male Wistar rats (180 to 200 g) were killed by suffocation in a CO2 chamber for two minutes. Whole brains without cerebellum were removed and dissected on ice, placed into closed vials and stored at −70° C.
Membrane fractions were prepared and tested using standard techniques. At the time of the assay, 1 g of the brains were placed into 25 ml of 50 mM Tris/10 mM EDTA buffer, pH=7.1, (25 vol. per g of original tissue) and was homogenized for 30 sec at 20000 U/min with an Ultraturrax T25 (Jahnke & Kunkel, IKA-Labortechnik, Staufen, Germany). The homogenate was centrifuged at 4° C. for 10 min at 48000 g (OPTIMA L-70, Beckman, Palo Alto, Calif. 94304, USA). The supernatant was discarded and the pellet was homogenized on ice for 30 sec at 20000 U/min with an Ultraturrax and again centrifuged at 48000 g for 30 minutes at 4° C. The resultant pellet was resuspended in 25 ml of 50 mM Tris/10 mM EDTA buffer, homogenized for 30 sec with an Ultraturrax, aliquoted, frozen at −70° C. and stored until use
(§2) After thawing on the day of the assay, a 5 ml membrane aliquote was centrifuged at 48000 g for 30 min at 4° C. The pellet was resuspended in 5 ml of 5 mM Tris/1 mM EDTA buffer, pH=7.4, homogenized for 30 sec at 20000 U/min with an Ultraturrax and centrifuged at 48000 g for 30 min at 4° C. This step was repeated twice. The final pellet was homogenized in 5 ml of 5 mM Tris/mM EDTA buffer at 4° C. with an Ultraturrax and used for the Ifenprodil-binding assay.
Nonspecific binding was estimated in the presence of 10 M CP101.606. The samples were incubated for 60 min. at 4° C.
(§3) Binding was terminated by filtration of the incubated membrane preparations using Filtermat B (Pharmacia, Uppsala Sweden) and a Micro Cell Harvester (Skatron, Lier, Norway). The Filtermat B had been presoaked with 1% polyethylenimine and carefully washed with 50 nM Tris/HCl-buffer pH=7.7 after the filtration to separate free and bound radioactivity.
For pipetting of the incubation mixture the robot Biomek2000 (Fa. Beckman) was used.
The IC50 values in the tables below were determined using the Hill-plot, 2-parameter-model.

[2] = biological target: T1, rat NR1/NR2B receptor; assay: NR2B binding assay: inhibition of specific [3H]-Ifenprodil binding to the rat NR1/NR2B receptor; conditions: rat brain membranes, Hill-plot 2-parameter-model
Procedure: Inhibition of Specific Binding to the Rat NR1/NR2B Receptor
as §1
Membrane fractions were prepared and tested using standard techniques. At the time of the assay, 1 g of the brains was placed into 25 ml of 50 mM Tris/10 mM EDTA buffer, pH 7.1, (25 vol. per g of original tissue) and homogenized for 30 sec at 20000 rpm with an Ultraturrax T25 (Jahnke & Kunkel, IKA-Labortechnik, Staufen, Germany). The homogenate was centrifuged at 4° C. for 10 min at 48000 g (OPTIMA L-70, Beckman, Palo Alto, Calif. 94304, USA).
The supernatant was discarded and the pellet was homogenized on ice for 30 sec at 20000 rpm with an Ultraturrax and again centrifuged at 48000 g for 30 minutes at 4° C. The resulted pellet was resuspended in 25 ml of 50 mM Tris/10 mM EDTA buffer, homogenized for 30 sec with an Ultraturrax, aliquoted, frozen at −70° C. and stored until use.
as §2, with “aliquot” for “aliquote”, “pH 7.4,” for “pH=7.4,”, “rpm” for “U/min”, “This” for “This step”, “Tris/l mM” for “Tris/mM”, “assay as described in the following.” for “assay.”
Nonspecific binding was estimated in the presence of […] CP101.606. The samples were incubated for 60 min. at 4° C.
as §3, with “The incubation” for “Binding”, “the” for “the incubated”, “polyethylene imine” for “polyethylenimine”, “mM” for “nM”, “pH 7.7” for “pH=7.7”
The optimal amount of membrane preparation in the assay had been determined and optimized for each membrane preparation separately before the test.
For pipetting of the incubation mixture we routinely used the robot Biomek2000 (Fa. Beckman).
For determination of IC50 values the Hill-plot, 2-parameter-model was used.

[3] = biological target: hERG-receptor (Homo sapiens (Human), UniProt Q12809); assay: HERGBD: inhibition of specific 3H-Dofetilide binding to the hERG-receptor; conditions: HEK cell membranes with human ERG, Hill-plot 2-parameter-model
Procedure: Inhibition of Specific Binding to the hERG-Receptor (HERGBD)
A HEK cell line with stable transfected human ERG receptor was used for the assay. The cells were grown adherently and maintained in DULBECCOS' MEM medium with 10% FBS, 1% non-essential amino acids, 1% Penicillin/Streptomycin and 400 μg/ml G418 (Calbiochem).
For binding assays and membrane preparations the cell culture medium was removed, cells were washed with PBS. Crude membranes for radioligand binding experiments were prepared by scraping the cells off the dishes in ice cold 20 mM HEPES/0.1 mM KCl/pH 7.2. The cell suspension was homogenized on ice (Ultra turrax, 3×20 sec.) and the homogenate was spun for 10 min (1° C., 1000 g, OPTIMA, SW28, 2800 U/min). The supernatant was than centrifuged for 40 min at 100000 g (1° C., OPTIMA, SW28, 23000 U/min). The membrane pellet was resuspended in 20 mM HEPES/0.1 mM KCl/pH 7.2, frozen and stored at −80° C.
After thawing on the day of the assay, the membrane suspension was diluted further with 20 mM HEPES/0.1 mM KCl/pH 7.2.
The incubation mixture of 200 μl contained 1.5 nmol/l 3H-Dofetilide, optimized amount of membrane preparation, 20 mM HEPES/0.1 mM KCl/(pH 7.2) and inhibitor in 1% DMSO. Nonspecific binding was estimated in the presence of […] Dofetilide. The samples were incubated for 90 min. at RT.
as §3, with “0.05 M” for “50 nM”, “radioactivity. The filters were counted in a scintillation counter (Betaplate 1205, Berthold, Wildbad, Germany) in order to determine the specific binding of [^3H]-Dofetilide.” for “radioactivity.”
The optimal amount of membrane preparation in the assay was determined and optimized for each membrane preparation separately in front of using the membranes in compound testing.
For pipetting of the incubation mixture we routinely use the robot Biomek2000 (Fa. Beckman).

T1 sequence (Q00960 27-1482, other chains not shown): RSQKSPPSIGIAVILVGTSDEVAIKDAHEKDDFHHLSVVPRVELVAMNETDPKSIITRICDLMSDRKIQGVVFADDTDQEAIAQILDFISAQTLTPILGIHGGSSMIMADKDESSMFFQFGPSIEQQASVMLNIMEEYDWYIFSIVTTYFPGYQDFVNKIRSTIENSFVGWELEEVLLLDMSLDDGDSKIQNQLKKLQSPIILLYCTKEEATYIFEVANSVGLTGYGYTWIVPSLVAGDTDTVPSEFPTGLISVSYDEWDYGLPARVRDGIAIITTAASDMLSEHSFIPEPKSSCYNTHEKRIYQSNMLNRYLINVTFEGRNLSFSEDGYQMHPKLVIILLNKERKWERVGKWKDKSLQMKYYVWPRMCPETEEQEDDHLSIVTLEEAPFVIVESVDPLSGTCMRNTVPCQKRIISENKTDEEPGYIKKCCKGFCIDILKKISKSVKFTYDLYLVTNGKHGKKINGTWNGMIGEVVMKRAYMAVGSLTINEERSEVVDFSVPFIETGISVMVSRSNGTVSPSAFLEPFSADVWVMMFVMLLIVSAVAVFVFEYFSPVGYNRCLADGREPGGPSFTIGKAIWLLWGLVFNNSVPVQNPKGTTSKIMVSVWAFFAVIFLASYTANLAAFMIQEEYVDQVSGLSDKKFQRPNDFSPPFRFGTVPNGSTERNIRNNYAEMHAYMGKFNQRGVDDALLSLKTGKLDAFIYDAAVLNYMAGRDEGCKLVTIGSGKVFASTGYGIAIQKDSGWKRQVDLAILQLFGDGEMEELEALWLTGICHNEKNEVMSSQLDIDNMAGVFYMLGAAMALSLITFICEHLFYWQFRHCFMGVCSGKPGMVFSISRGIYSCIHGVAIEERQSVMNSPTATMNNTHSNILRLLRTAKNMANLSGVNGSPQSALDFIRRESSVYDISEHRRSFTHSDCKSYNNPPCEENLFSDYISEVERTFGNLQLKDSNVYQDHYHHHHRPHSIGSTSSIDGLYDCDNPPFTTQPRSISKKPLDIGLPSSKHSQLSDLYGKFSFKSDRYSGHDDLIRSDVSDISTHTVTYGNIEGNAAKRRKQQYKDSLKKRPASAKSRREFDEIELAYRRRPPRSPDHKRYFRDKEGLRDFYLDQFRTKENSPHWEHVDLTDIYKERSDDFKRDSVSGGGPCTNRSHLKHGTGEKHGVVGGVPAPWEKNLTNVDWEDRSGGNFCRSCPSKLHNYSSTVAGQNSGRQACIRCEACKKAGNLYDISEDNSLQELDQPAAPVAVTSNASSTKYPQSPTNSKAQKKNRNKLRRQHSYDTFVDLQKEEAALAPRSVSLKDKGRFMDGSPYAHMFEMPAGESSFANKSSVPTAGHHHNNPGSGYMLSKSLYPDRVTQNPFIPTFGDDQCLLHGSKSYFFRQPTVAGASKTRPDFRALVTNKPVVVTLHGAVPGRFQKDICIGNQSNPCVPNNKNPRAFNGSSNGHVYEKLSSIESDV
hERG-receptor, sequence (Q12809 whole entry): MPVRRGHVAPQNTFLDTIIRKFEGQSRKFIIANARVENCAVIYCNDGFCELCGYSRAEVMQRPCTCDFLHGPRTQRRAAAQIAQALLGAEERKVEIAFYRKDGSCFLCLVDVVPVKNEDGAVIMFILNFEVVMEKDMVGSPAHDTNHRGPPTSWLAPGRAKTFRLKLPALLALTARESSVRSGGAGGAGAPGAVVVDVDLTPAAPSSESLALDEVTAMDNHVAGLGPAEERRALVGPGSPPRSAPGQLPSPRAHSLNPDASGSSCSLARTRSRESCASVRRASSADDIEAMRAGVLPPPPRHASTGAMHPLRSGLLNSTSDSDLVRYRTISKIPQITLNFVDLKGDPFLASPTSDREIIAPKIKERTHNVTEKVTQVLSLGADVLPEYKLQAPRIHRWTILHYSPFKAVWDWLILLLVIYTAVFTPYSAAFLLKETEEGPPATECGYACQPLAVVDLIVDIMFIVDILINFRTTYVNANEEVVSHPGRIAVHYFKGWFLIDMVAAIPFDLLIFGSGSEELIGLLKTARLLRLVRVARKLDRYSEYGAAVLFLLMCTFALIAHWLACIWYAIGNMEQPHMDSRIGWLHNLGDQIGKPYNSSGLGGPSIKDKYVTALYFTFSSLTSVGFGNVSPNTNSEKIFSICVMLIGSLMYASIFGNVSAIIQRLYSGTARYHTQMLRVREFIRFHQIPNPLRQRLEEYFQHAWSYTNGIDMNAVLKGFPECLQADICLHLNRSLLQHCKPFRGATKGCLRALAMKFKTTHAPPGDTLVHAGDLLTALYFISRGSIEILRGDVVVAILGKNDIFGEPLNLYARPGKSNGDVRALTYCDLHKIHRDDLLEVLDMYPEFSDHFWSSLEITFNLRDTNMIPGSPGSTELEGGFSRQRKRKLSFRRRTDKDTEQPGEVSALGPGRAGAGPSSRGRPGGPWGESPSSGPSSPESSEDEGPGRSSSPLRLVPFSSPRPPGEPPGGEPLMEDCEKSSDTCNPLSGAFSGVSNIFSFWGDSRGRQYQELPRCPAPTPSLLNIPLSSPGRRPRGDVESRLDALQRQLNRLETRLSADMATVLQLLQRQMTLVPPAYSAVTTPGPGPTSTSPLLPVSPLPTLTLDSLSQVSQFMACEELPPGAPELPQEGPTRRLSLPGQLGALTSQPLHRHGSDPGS

IC50 [1] [nM] | IC50 [2] [nM] | SMILES | IC50 [3] [nM]
46.6 | 46.6 | CCCc1nccn1Cc1cn(-c2ccc(Cl)cc2)nn1 [Example 18, 1-(4-Chloro-phenyl)-4-(2-propyl-imidazol-1-ylmethyl)-1H-[1,2,3]triazole] | 2230
> 10000 | – | Cc1nc(C2CCC2)n(Cc2cn(-c3ccc(Cl)cc3)nn2)n1 [Example 21, 1-(4-Chloro-phenyl)-4-(5-cyclobutyl-3-methyl-[1,2,4]triazol-1-ylmethyl)-1H-[1,2,3]triazole] | 3520
38.9 | 38.9 | CCCCc1nccn1Cc1cn(-c2ccc(Cl)cc2)nn1 [Example 27, 4-(2-Butyl-imidazol-1-ylmethyl)-1-(4-chloro-phenyl)-1H-[1,2,3]triazole] | 570
573 | 573 | OCc1nccn1Cc1cn(-c2ccc(Cl)cc2)nn1 [Example 28, 4-(2-Hydroxymethyl-imidazol-1-ylmethyl)-1-(4-chloro-phenyl)-1H-[1,2,3]triazole] | 11200
> 10000 | – | Cc1nncn1Cc1cn(-c2ccc(Cl)cc2)nn1 [Example 31, 1-(4-Chloro-phenyl)-4-(3-methyl-[1,2,4]triazol-4-ylmethyl)-1H-[1,2,3]triazole] | 22400
6.84 | 6.84 | CCCCc1nccn1Cc1cn(-c2ccc(Cl)c(Cl)c2)nn1 [Example 37, 4-(2-Butyl-imidazol-1-ylmethyl)-1-(3,4-dichloro-phenyl)-1H-[1,2,3]triazole] | 585
7.58 | 7.58 | Clc1ccc(-n2cc(Cn3ccnc3C3CCC3)nn2)cc1Cl [Example 39, 4-(2-Cyclobutyl-imidazol-1-ylmethyl)-1-(3,4-dichloro-phenyl)-1H-[1,2,3]triazole] | 1740
28.3 | 28.3 | Fc1ccc(-n2cc(Cn3ccnc3C3CC3)nn2)cc1Cl [Example 44] | 3570
8.08 | 8.08 | CC(F)(F)c1cc(-n2cc(Cn3ccnc3CCO)nn2)ccc1F [Example 106, 1-[3-(1,1-Difluoro-ethyl)-4-fluoro-phenyl]-4-[2-(2-hydroxy-ethyl)-imidazol-1-ylmethyl]-1H-[1,2,3]triazole] | –

The next lines start with the compound.

SMILES | IC50 [1] [nM] | IC50 [2] [nM] | IC50 [3] [nM]
Cc1ncnn1Cc1cn(-c2ccc(Cl)cc2)nn1 [Example 8, 1-(4-Chloro-phenyl)-4-(5-methyl-[1,2,4]triazol-1-ylmethyl)-1H-[1,2,3]triazole] | 14300 | 14300 | 48900
Clc1ccc(-n2cc(Cn3ncnc3C3CCCC3)nn2)cc1 [Example 14, 1-(4-Chloro-phenyl)-4-(5-cyclopentyl-[1,2,4]triazol-1-ylmethyl)-1H-[1,2,3]triazole] | 12500 | 12500 | 30500
Cc1nccn1Cc1cn(-c2ccc(Cl)cc2)nn1 [Example 24, 1-(4-Chloro-phenyl)-4-(2-methyl-imidazol-1-ylmethyl)-1H-[1,2,3]triazole] | 38.4 | 38.4 | 5640
Cc1nccn1Cc1cn(-c2ccc(Cl)c(Cl)c2)nn1 [Example 32, 1-(3,4-Dichloro-phenyl)-4-(2-methyl-imidazol-1-ylmethyl)-1H-[1,2,3]triazole] | 4.92 | 4.92 | 3930
CCc1nccn1Cc1cn(-c2ccc(Cl)c(Cl)c2)nn1 [Example 33, 1-(3,4-Dichloro-phenyl)-4-(2-ethyl-imidazol-1-ylmethyl)-1H-[1,2,3]triazole] | 4.65 | 4.65 | 2230
CCCc1nccn1Cc1cn(-c2ccc(Cl)c(Cl)c2)nn1 [Example 34, 1-(3,4-Dichloro-phenyl)-4-(2-propyl-imidazol-1-ylmethyl)-1H-[1,2,3]triazole] | 7.67 | 7.67 | 1120
CC(C)c1nccn1Cc1cn(-c2ccc(Cl)c(Cl)c2)nn1 [Example 35, 1-(3,4-Dichloro-phenyl)-4-(2-isopropyl-imidazol-1-ylmethyl)-1H-[1,2,3]triazole] | 7.4 | 7.4 | 5880
Clc1ccc(-n2cc(Cn3ccnc3C3CC3)nn2)cc1Cl [Example 36, 4-(2-Cyclopropyl-imidazol-1-ylmethyl)-1-(3,4-dichloro-phenyl)-1H-[1,2,3]triazole] | 17.9 | 17.9 | 1160
CC(C)(C)c1nccn1Cc1cn(-c2ccc(Cl)c(Cl)c2)nn1 [Example 38, 4-(2-tert-Butyl-imidazol-1-ylmethyl)-1-(3,4-dichloro-phenyl)-1H-[1,2,3]triazole] | 526 | 526 | 5680
OCCc1nccn1Cc1cn(-c2ccc(Cl)c(Cl)c2)nn1 [Example 40, 4-[2-(2-Hydroxyethyl)-imidazol-1-ylmethyl]-1-(3,4-dichloro-phenyl)-1H-[1,2,3]triazole] | 17.2 | 17.2 | 14700
FCCc1nccn1Cc1cn(-c2ccc(Cl)c(Cl)c2)nn1 [Example 41, 1-(3,4-Dichloro-phenyl)-4-[2-(2-fluoro-ethyl)-imidazol-1-ylmethyl]-1H-[1,2,3]triazole] | 26.2 | 26.2 | 13700
Cc1nc(C)n(Cc2cn(-c3ccccc3)nn2)n1 [Example 46, 4-(3,5-Dimethyl-[1,2,4]triazol-1-ylmethyl)-1-phenyl-1H-[1,2,3]triazole] | > 10000 | – | 7580
